From patent US10093683B2, “Factor XIa inhibitors” (Merck Sharp & Dohme Corp., priority 2014, dated 2018)
Where a name gives a salt, the structure may show the parent alone. Read-outs that look alike come from different tables or passages of the source.

Molecular target: human Factor XIa (Homo sapiens (Human), UniProt P03951)
Assay: Factor XIa Assay
Type: biochemical
Conditions: read-out: FXIa Ki
Summary of the method: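 Purified human FXIa (40 pM final) hydrolysing fluorogenic Z-Gly-Pro-Arg-AFC (100 μM) in 50 mM HEPES pH 7.4, 150 mM NaCl, 5 mM CaCl2, 0.1% PEG 8000, at room temperature or 37° C. Initial velocities measured after enzyme–inhibitor equilibration; Ki from Vo/Vi versus [I], assuming competitive inhibition.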

[1] = purified human Factor XIa 40 pM, Z-Gly-Pro-Arg-AFC 100 μM, pH 7.4

human Factor XIa, sequence (P03951 388-625): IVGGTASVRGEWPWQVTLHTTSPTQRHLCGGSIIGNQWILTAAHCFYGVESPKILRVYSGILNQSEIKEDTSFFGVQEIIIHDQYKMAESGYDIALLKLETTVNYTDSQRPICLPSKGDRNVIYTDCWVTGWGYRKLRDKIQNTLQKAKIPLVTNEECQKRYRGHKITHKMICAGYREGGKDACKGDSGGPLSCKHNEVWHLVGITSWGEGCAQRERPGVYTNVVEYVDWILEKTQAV
human Factor XIa, sequence (P03951 19-387 partner): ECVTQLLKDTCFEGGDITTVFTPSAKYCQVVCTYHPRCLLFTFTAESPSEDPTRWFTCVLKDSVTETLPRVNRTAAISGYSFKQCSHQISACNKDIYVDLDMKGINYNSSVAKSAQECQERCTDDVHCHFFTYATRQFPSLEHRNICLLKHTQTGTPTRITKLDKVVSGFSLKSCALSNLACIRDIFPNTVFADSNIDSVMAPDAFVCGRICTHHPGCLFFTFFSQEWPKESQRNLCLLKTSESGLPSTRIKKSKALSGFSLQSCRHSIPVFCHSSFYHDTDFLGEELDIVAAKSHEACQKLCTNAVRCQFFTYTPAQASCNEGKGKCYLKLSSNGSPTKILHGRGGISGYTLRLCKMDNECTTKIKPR

Ki [µM] | Ki [1] [µM] | Structure (SMILES)
0.518 | – | O=C1Nc2ccc(Cl)cc2[C@@]2(CCCN(C(=O)[C@H](Cc3ccccc3)NC(=O)c3ccc4c(O)cc(=O)[nH]c4c3)C2)O1 [Example 221]
8.75 | – | COC(=O)Nc1ccc(CN[C@@H](Cc2ccccc2)C(=O)N2CC[C@@]3(C2)OC(=O)Nc2ccc(Cl)cc23)cc1 [Example 222, Methyl (4-((((S)-1-((R)-6-chloro-2-oxo-1,2-dihydrospiro[benzo[d][1,3]oxazine-4,3′-pyrrolidin]-1′-yl)-1-oxo-3-phenylpropan-2-yl)amino)methyl)phenyl)carbamate]
8.75 | – | COC(=O)Nc1ccc(C(N[C@@H](Cc2ccccc2)C(=O)N2CCC3(C2)OC(=O)Nc2ccc(Cl)cc23)C(F)(F)F)cc1 (stereo partly drawn) [Example 223, Methyl (4-(1-(((S)-1-((R)-6-chloro-2-oxo-1,2-dihydrospiro[benzo[d][1,3]oxazine-4,3′-pyrrolidin]-1′-yl)-1-oxo-3-phenylpropan-2-yl)amino)-2,2,2-trifluoroethyl)phenyl)carbamate]
8.75 | – | CC(N[C@@H](Cc1ccccc1)C(=O)N1CC[C@@]2(C1)OC(=O)Nc1ccc(Cl)cc12)c1ccc2c(N)n[nH]c2c1 (stereo partly drawn) [Example 224, (4R)-1′-((1-(3-amino-1H-indazol-6-yl)ethyl)-L-phenylalanyl)-6-chlorospiro[benzo[d][1,3]oxazine-4,3′-pyrrolidin]-2(1H)-one dihydrochloride]
0.258 | – | O=C1Nc2ccc(Cl)c(F)c2[C@@]2(CCCN(C(=O)[C@H](Cc3ccccc3)NC(=O)c3ccc(-c4nc(=O)o[nH]4)cc3)C2)O1 [Example 232, N-((S)-1-((R)-6-chloro-5-fluoro-2-oxo-1,2-dihydrospiro[benzo[d][1,3]oxazine-4,3′-piperidin]-1′-yl)-1-oxo-3-phenylpropan-2-yl)-4-(5-oxo-2,5-dihydro-1,2,4-oxadiazol-3-yl)benzamide]
0.104 | – | COC(=O)NC12CC(C(=O)N[C@@H](Cc3ccccc3)C(=O)N3CCC[C@@]4(C3)OC(=O)Nc3ccc(Cl)c(F)c34)(C1)C2 [Example 238]
0.405 | – | O=C1Nc2ccc(Cl)cc2[C@@]2(CCCN(C(=O)[C@H](CC3CC3)NC(=O)c3csc(C(=O)O)n3)C2)O1 [Example 239]
0.177 | – | COC(=O)Nc1ccc(C(=O)N[C@@H](Cc2ccccc2)C(=O)N2CCC[C@@]3(C2)OC(=O)Nc2ccc(Cl)c(F)c23)nn1 [Example 242]
0.096 | – | COC(=O)NC12CCC(C(=O)N[C@@H](Cc3ccccc3)C(=O)N3CCC[C@@]4(C3)OC(=O)Nc3ccc(Cl)c(F)c34)(CC1)CC2 [Example 243]
0.0778 | – | O=C1Nc2ccc(Cl)c(F)c2[C@@]2(CCCN(C(=O)[C@H](Cc3ccccc3)NC(=O)c3ccc(=O)[nH]c3)C2)O1 [Example 246]
0.0668 | – | O=C1Nc2ccc(Cl)c(F)c2[C@@]2(CCCN(C(=O)[C@H](Cc3ccccc3)NC(=O)c3ccc(-n4cn[nH]c4=O)cc3)C2)O1 [Example 247, N-((S)-1-((R)-6-chloro-5-fluoro-2-oxo-1,2-dihydrospiro[benzo[d][1,3]oxazine-4,3′-piperidin]-1′-yl)-1-oxo-3-phenylpropan-2-yl)-4-(5-oxo-1,5-dihydro-4H-1,2,4-triazol-4-yl)benzamide]
0.298 | – | O=C1Nc2ccc(Cl)cc2C2(CCN(C(=O)[C@H](Cc3ccccc3)NC(=O)c3ccc4cc(C(=O)O)ccc4c3)C2)O1 (stereo partly drawn) [Example 259]
4.05 | – | Nc1ccc2cc(C(=O)N[C@@H](Cc3ccccc3)C(=O)N3CCC4(C3)OC(=O)Nc3ccc(Cl)cc34)ccc2n1 (stereo partly drawn) [Example 261]
0.512 | – | O=C1Nc2ccc(Cl)cc2C2(CCN(C(=O)[C@H](Cc3ccccc3)NC(=O)c3ccc4ncc(O)nc4c3)C2)O1 (stereo partly drawn) [Example 262]
1.97 | – | O=C1Nc2ccc(Cl)cc2C2(CCN(C(=O)[C@H](Cc3ccccc3)NC(=O)c3ccc4c(c3)S(=O)(=O)N=CN4)C2)O1 (stereo partly drawn) [Example 263]
0.367 | – | O=C1Nc2ccc(Cl)c(F)c2[C@@]2(CCCN(C(=O)[C@H](Cc3cccc(F)c3)NC(=O)c3ccc(C(=O)NCCP(=O)(O)O)cc3)C2)O1 [Example 273, (2-(4-(((S)-1-((R)-6-Chloro-5-fluoro-2-oxo-1,2-dihydrospiro[benzo[d][1,3]oxazine-4,3′-piperidin]-1′-yl)-3-(3-fluorophenyl)-1-oxopropan-2-yl)carbamoyl)benzamido)ethyl)phosphonic acid]
– | 5 | COC(=O)Nc1ccc(NC(=O)N[C@@H](Cc2ccccc2)C(=O)N2CCC3(C2)OC(=O)Nc2ccc(Cl)cc23)cc1 (stereo partly drawn) [Example 275, methyl (4-(3-((2S)-1-(6-chloro-2-oxo-1,2-dihydrospiro[benzo[d][1,3]oxazine-4,3′-pyrrolidin]-1′-yl)-1-oxo-3-phenylpropan-2-yl)ureido)phenyl)carbamate]
– | 5 | Nc1[nH]nc2c1CN(C(=O)N[C@@H](Cc1ccccc1)C(=O)N1CCC3(C1)OC(=O)Nc1ccc(Cl)cc13)C2 (stereo partly drawn) [Example 276, 3-amino-N-((2S)-1-(6-chloro-2-oxo-1,2-dihydrospiro[benzo[d][1,3]oxazine-4,3′-pyrrolidin]-1′-yl)-1-oxo-3-phenylpropan-2-yl)-4,6-dihydropyrrolo[3,4-c]pyrazole-5(2H)-carboxamide]
– | 5 | O=C(Nc1ccc(C(=O)O)cc1)N[C@@H](Cc1ccccc1)C(=O)N1CCC2(C1)OC(=O)Nc1ccc(Cl)cc12 (stereo partly drawn) [Example 277, 4-(3-((2S)-1-(6-chloro-2-oxo-1,2-dihydrospiro[benzo[d][1,3]oxazine-4,3′-pyrrolidin]-1′-yl)-1-oxo-3-phenylpropan-2-yl)ureido)benzoic acid]
– | 5 | NC(=O)c1n[nH]c2c1CN(C(=O)N[C@@H](Cc1ccccc1)C(=O)N1CCC3(C1)OC(=O)Nc1ccc(Cl)cc13)C2 (stereo partly drawn) [Example 278, N5-((2S)-1-(6-chloro-2-oxo-1,2-dihydrospiro[benzo[d][1,3]oxazine-4,3′-pyrrolidin]-1′-yl)-1-oxo-3-phenylpropan-2-yl)-4,6-dihydropyrrolo[3,4-c]pyrazole-3,5(1H)-dicarboxamide]
– | 5 | O=C(NCc1cccc(C(=O)O)c1)N[C@@H](Cc1ccccc1)C(=O)N1CCC2(C1)OC(=O)Nc1ccc(Cl)cc12 (stereo partly drawn) [Example 279, 3-((3-((2S)-1-(6-chloro-2-oxo-1,2-dihydrospiro[benzo[d][1,3]oxazine-4,3′-pyrrolidin]-1′-yl)-1-oxo-3-phenylpropan-2-yl)ureido)methyl)benzoic acid]
– | 5 | N#Cc1ccc(S(=O)(=O)N[C@@H](Cc2ccccc2)C(=O)N2CCC3(C2)OC(=O)Nc2ccc(Cl)cc23)cc1 (stereo partly drawn) [Example 280, N-((2S)-1-(6-chloro-2-oxo-1,2-dihydrospiro[benzo[d][1,3]oxazine-4,3′-pyrrolidin]-1′-yl)-1-oxo-3-phenylpropan-2-yl)-4-cyanobenzenesulfonamide]
– | ≥ 5 | CNC(=O)Nc1ccc(S(=O)(=O)N[C@@H](Cc2ccccc2)C(=O)N2CCC3(C2)OC(=O)Nc2ccc(Cl)cc23)c(Cl)c1 (stereo partly drawn) [Example 281, 2-chloro-N-((2S)-1-(6-chloro-2-oxo-1,2-dihydrospiro[benzo[d][1,3]oxazine-4,3′-pyrrolidin]-1′-yl)-1-oxo-3-phenylpropan-2-yl)-4-(3-methylureido)benzenesulfonamide]
– | ≥ 5 | O=C1COc2ccc(S(=O)(=O)N[C@@H](Cc3ccccc3)C(=O)N3CCC4(C3)OC(=O)Nc3ccc(Cl)cc34)cc2N1 (stereo partly drawn) [Example 282, N-((2S)-1-(6-chloro-2-oxo-1,2-dihydrospiro[benzo[d][1,3]oxazine-4,3′-pyrrolidin]-1′-yl)-1-oxo-3-phenylpropan-2-yl)-3-oxo-3,4-dihydro-2H-benzo[b][1,4]oxazine-6-sulfonamide]
– | ≥ 5 | O=C1Nc2ccc(Cl)cc2C2(CCN(C(=O)[C@H](Cc3ccccc3)NS(=O)(=O)c3ccc(C(=O)O)cc3)C2)O1 (stereo partly drawn) [Example 283, 4-(N-((2S)-1-(6-chloro-2-oxo-1,2-dihydrospiro[benzo[d][1,3]oxazine-4,3′-pyrrolidin]-1′-yl)-1-oxo-3-phenylpropan-2-yl)sulfamoyl)benzoic acid]
– | ≥ 5 | CC(=O)Nc1ccc(S(=O)(=O)N[C@@H](Cc2ccccc2)C(=O)N2CCC3(C2)OC(=O)Nc2ccc(Cl)cc23)cc1 (stereo partly drawn) [Example 284, N-(4-(N-((2S)-1-(6-chloro-2-oxo-1,2-dihydrospiro[benzo[d][1,3]oxazine-4,3′-pyrrolidin]-1′-yl)-1-oxo-3-phenylpropan-2-yl)sulfamoyl)phenyl)acetamide]
– | ≥ 5 | O=C1Nc2ccc(Cl)cc2C2(CCN(C(=O)[C@H](Cc3ccccc3)NS(=O)(=O)c3ccc4oc(O)nc4c3)C2)O1 (stereo partly drawn) [Example 285, N-((2S)-1-(6-chloro-2-oxo-1,2-dihydrospiro[benzo[d][1,3]oxazine-4,3′-pyrrolidin]-1′-yl)-1-oxo-3-phenylpropan-2-yl)-2-hydroxybenzo[d]oxazole-5-sulfonamide]
– | 2.4 | CO[C@@H]1C[C@@H](C(=O)N2CC[C@@]3(C2)OC(=O)Nc2ccc(Cl)cc23)N(C(=O)c2ccc3nc(N)sc3c2)C1 [Example 290, (R)-1′-((2S,4R)-1-(2-aminobenzo[d]thiazole-6-carbonyl)-4-methoxypyrrolidine-2-carbonyl)-6-chlorospiro[benzo[d][1,3]oxazine-4,3′-pyrrolidin]-2(1H)-one]
– | 4.62 | Nc1nc2ccc(C(=O)N3C[C@H](F)C[C@H]3C(=O)N3CC[C@@]4(C3)OC(=O)Nc3ccc(Cl)cc34)cc2s1 [Example 291, (R)-1′-((2S,4R)-1-(2-aminobenzo[d]thiazole-6-carbonyl)-4-fluoropyrrolidine-2-carbonyl)-6-chlorospiro[benzo[d][1,3]oxazine-4,3′-pyrrolidin]-2(1H)-one]

Structure (SMILES) | Ki [µM] | Ki [1] [µM]
CCOP(=O)(OCC)c1ccc(C(=O)N[C@H](Cc2ccccc2)C(=O)N2CCC[C@@]3(C2)OC(=O)Nc2ccc(Cl)c(F)c23)cc1 [Example 229, diethyl (4-(((R)-1-((R)-6-chloro-5-fluoro-2-oxo-1,2-dihydrospiro[benzo[d][1,3]oxazine-4,3′-piperidin]-1′-yl)-1-oxo-3-phenylpropan-2-yl)carbamoyl)phenyl)phosphonate] | 8.75 | –
